Test results reported in patent US11851681B2, “Cell preparation method” (KYOTO PREFECTURAL PUBLIC UNIVERSITY CORPORATION, priority 2015, dated 2023).

How the values were obtained:
Format in all cases: cell-based
[1] = test system: human dermal fibroblasts; HDFs; experiment: Alizarin Red S staining and absorbance, compound panel, Examples 29-30; conditions: calcification induction medium; compounds 2 μM (Pifthrin-α 5 μM, DZnep 50 nM); day 28; FIG. 33, 34
Experimental: The compounds added to the medium and the concentrations thereof are as follows. • I-BET151: 2 μM • Pifthrin-α: 5 μM • PD0325901: 2 μM • 2-Me-5HT: 2 μM • CX4945: 2 μM • CHIR99021: 2 μM • Forskolin: 2 μM • DZnep: 50 nM • D4476: 2 μM • SB431542: 2 μM • ALK5 i II: 2 μM.
In the experiment of Example 29, the solution after staining with the Alizarin Red S staining solution was collected in a 96 well plate and the absorbance (OD 550 nm) was measured with an absorption spectrometer.

[2] = test system: Human normal skin-derived fibroblasts (HDFs); experiment: Alizarin Red S and ALP staining, absorbance, TGF-β pathway inhibitor panel, Examples 31-32
Experimental: On day 21, the culture medium was removed from a part of the well, washed with PBS(-), and fixed with a fixative. It was washed 3 times with sterile distilled water. […] In the experiment of Example 31, the solution after staining with the Alizarin Red S staining solution was collected in a 96 well plate and the absorbance (OD 550 nm) was measured with an absorption spectrometer.

[3] = test system: Human normal skin-derived fibroblasts (HDFs); experiment: Real-time RT-PCR of ALP, Osteocalcin, Bonesialoprotein, Example 35; conditions: day 18, FIG. 39
Experimental: The concentrations of the small molecule compound or cytokine added are as follows. • ALK5 i II: 4 μM • 1α,25-dihydroxy Vitamin D3 (VD3): 5 nM • Human insulin-like growth factor-1 (IGF-1): 100 ng/ml.

[4] = test system: human dermal fibroblasts; HDFs; experiment: Real-time RT-PCR of AdipoQ, Example 14; conditions: D4476, SB431542, ALK5 Inhibitor II 2 μM, PD0325901 1 μM, in addition to T3 and Rosiglitazone; day 14; FIG. 14
Experimental: The concentrations of the additives are as follows: • T3: 1 nM • Rosiglitazone: 1 μM • D4476: 2 μM. • Pifithrin alpha [p53 inhibitor]: 5 μM • PD0325901: 1 μM • SB431542: 2 μM • ALK5 Inhibitor II: 2 μM.

| Compound | conversion from fibroblast to osteoblast, Alizarin Red S staining and absorbance [1] | other results |
| --- | --- | --- |
| Cc1ccc(C(=O)Cn2c3c(sc2=N)CCCC3)cc1 [Pifthrin-α] | do not induce conversion from fibroblast to osteoblast |  |
| Cc1[nH]c2ccc(O)cc2c1CCN [2-Me-5HT] | do not induce conversion from fibroblast to osteoblast |  |
| Fc1ccc(Cl)cc1-c1nc(Nc2ccncc2)c2nccnc2n1 [SD208, 2-(5-Chloro-2-fluorophenyl)-4-[(4-pyridyl)amino]pteridine] |  | conversion of human fibroblast to osteoblast, Alizarin Red S / ALP staining and absorbance ([2]; calcification induction medium, compounds 1 or 4 μM, TGF-β 10 ng/ml, day 21, FIG. 35, 36): can strongly convert human fibroblast to osteoblast; efficiency in converting fibroblast to osteoblast (summary statement) ([2]; description, conditions not given): highly efficient in converting fibroblast to osteoblast |
| COc1cc2c(cc1-c1c(C)noc1C)ncc1[nH]c(=O)n([C@H](C)c3ccccn3)c12 [I-BET] | do not induce conversion from fibroblast to osteoblast |  |
| IGF-1: Human insulin-like growth factor-1 |  | mRNA expression of BSP, ALK5 i II and IGF-1 compared to ALK5 i II ([3]; IGF-1 100 ng/ml added with ALK5 i II 4 μM): further significantly increased |
| Cc1c[nH]c(-c2cnc(NCCNc3ccc(C#N)cn3)nc2-c2ccc(Cl)cc2Cl)n1 [CHIR] | do not induce conversion from fibroblast to osteoblast |  |
| Nc1nccc2c1ncn2[C@@H]1C=C(CO)C(O)[C@@H]1O (some centres unmarked) [DZnep] | do not induce conversion from fibroblast to osteoblast |  |
| C=C1/C(=C\C=C2/CCC[C@]3(C)[C@@H]([C@H](C)CCCC(C)(C)O)CC[C@@H]23)C[C@@H](O)C[C@@H]1O [VD3, 1α,25-dihydroxy Vitamin D3] |  | mRNA expression of OC, ALK5 i II and VD3 compared to ALK5 i II ([3]; VD3 5 nM added with ALK5 i II 4 μM): significantly increased |
| O=C(NOC[C@H](O)CO)c1ccc(F)c(F)c1Nc1ccc(I)cc1F [PD0325901] | do not induce conversion from fibroblast to osteoblast | conversion of fibroblast to brown adipocytes, AdipoQ mRNA [4]: converted fibroblast to brown adipocytes expressing mRNA of AdipoQ gene |
